The values below are quoted from earlier work in patent publication US10028930B2, “Compositions capable of enhancing thermogenesis and uses thereof” (Specialty Nutrition Group, Inc., priority 2013, dated 2018).

The subject of series [1] is uncoupling proteins (UCP-1, UCP-2, UCP-3). The following applies: rodents, brown and white adipose tissue.
The conditions of series [2]: NAFLD subjects, compared to placebo.

Regarding Fucoxanthin, in series [1], the “expression of uncoupling proteins (UCP-1, UCP-2, UCP-3)” value is “inducing the expression”. In addition, in series [2], the “resting energy expenditure (REE)” value is reported as “significantly increased”.
